Data on nine compounds can be found in US10513521B2, “Compositions and methods for inhibiting BMP” (The Brigham and Women's Hospital, Inc., priority 2014, dated 2019).

The term IC50 denotes the midpoint of a concentration-inhibition curve.

Structures are written as SMILES. Substitutions are numbered along the chain they refer to. Some results are limits rather than exact numbers.

Experiment [1] addresses T1, ALK2 (Mus musculus, UniProt P37172).
T1 construct: The C2C12 cell line was selected for the measurement of ALK2 activity using BMP6 as the agonist; host or cells: C2C12
T1 sequence (P37172 21-509): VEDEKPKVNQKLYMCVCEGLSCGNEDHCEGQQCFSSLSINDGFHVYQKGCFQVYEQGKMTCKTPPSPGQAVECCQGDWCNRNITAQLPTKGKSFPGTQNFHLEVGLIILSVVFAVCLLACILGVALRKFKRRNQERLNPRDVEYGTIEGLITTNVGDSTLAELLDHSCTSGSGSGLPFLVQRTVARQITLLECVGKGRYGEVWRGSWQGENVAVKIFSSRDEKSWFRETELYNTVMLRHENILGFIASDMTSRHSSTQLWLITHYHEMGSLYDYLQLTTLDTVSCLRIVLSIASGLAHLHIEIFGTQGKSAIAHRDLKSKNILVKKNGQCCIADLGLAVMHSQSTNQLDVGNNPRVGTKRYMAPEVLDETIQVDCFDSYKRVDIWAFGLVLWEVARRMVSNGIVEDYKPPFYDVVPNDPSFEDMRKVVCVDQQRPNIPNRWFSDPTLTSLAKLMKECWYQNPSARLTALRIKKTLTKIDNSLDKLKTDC
Kind of experiment: HTRF pSMAD1 cell-based ALK2 assay (C2C12 cells, BMP6 as agonist). The conditions noted are these: cell-based assay, BMP6; read-out: Cell IC50 BMP6. The method, boiled down: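 Phospho-SMAD1 HTRF readout, detection incubated overnight at room temperature. Before that: starved cells in 0.1% FBS for 4 h, 30 min compound pretreatment, then 30 min agonist, BMP6 on C2C12 or BMP9 on BAOEC.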
(In general: Time-resolved FRET reads energy transfer from a long-lived donor to a nearby acceptor.)

Experiment [2] in a line: Cell-based assay, TGFb1 (Cell IC50).
The target in the next experiment is ALK1 (Homo sapiens, UniProt P37023). Kind of experiment: TR-FRET enzymatic ALK kinase assay, ALK1.
The target in experiment [3] is T2, ALK2 (Homo sapiens, UniProt Q04771).
T2 sequence (Q04771 21-509): T1 sequence (P37172 21-509) with V1M, Q10P, I121L, E162D, S310P
Kind of experiment: TR-FRET enzymatic ALK kinase assay, ALK2.

The target in another experiment is ALK3 (Homo sapiens, UniProt P36894). Put plainly: TR-FRET enzymatic ALK kinase assay, ALK3.
In the next experiment the target is T3, ALK4 (Homo sapiens, UniProt P36896).
T3 sequence (P36896 24-505): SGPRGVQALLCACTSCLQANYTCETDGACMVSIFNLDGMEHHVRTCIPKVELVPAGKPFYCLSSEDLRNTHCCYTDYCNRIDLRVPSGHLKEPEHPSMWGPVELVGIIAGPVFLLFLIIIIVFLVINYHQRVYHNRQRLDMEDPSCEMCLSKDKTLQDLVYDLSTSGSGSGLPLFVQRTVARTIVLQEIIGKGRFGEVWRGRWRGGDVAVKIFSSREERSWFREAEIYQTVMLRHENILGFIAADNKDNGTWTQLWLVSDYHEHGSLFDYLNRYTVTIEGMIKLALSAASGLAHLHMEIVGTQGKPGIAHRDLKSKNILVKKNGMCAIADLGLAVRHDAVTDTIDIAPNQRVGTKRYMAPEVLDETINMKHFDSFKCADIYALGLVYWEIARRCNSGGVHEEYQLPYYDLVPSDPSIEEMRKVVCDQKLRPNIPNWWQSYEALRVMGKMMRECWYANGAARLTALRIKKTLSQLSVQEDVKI
Put plainly: TR-FRET enzymatic ALK kinase assay, ALK4.

The target of a further experiment is T4, ALK5 (Homo sapiens, UniProt P36897).
T4 sequence (P36897 34-503): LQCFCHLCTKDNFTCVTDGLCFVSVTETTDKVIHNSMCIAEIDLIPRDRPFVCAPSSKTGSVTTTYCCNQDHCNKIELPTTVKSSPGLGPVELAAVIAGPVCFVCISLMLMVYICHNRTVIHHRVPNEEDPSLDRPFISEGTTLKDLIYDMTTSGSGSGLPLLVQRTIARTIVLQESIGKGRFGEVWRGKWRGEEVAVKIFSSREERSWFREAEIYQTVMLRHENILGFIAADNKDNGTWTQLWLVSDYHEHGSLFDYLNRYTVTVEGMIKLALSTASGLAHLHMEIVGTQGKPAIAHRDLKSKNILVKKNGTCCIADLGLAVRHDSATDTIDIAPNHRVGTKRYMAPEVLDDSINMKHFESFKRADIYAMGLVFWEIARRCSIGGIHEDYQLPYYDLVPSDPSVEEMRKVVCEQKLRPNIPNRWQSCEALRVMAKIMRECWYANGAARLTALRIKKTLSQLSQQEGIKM
Kind of experiment: TR-FRET enzymatic ALK kinase assay, ALK5.

For the next experiment, the target named is ALK6 (Homo sapiens, UniProt O00238). Kind of experiment: TR-FRET enzymatic ALK kinase assay, ALK6.
Sequence of ALK6 (O00238 14-502): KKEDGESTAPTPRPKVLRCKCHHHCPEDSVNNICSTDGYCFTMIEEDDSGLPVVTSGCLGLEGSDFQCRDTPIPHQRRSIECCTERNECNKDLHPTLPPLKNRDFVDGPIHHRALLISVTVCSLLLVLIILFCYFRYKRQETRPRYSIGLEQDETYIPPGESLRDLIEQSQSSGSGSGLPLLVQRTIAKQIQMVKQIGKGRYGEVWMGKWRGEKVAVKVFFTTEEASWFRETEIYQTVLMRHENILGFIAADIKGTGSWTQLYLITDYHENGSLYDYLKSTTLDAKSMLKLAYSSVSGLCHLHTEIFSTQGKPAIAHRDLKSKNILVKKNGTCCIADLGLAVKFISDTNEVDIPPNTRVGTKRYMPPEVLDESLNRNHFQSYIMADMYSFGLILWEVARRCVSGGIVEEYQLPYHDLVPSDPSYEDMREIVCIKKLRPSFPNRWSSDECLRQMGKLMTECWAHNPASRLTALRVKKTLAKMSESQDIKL

Sequence of ALK1 (P37023 22-503): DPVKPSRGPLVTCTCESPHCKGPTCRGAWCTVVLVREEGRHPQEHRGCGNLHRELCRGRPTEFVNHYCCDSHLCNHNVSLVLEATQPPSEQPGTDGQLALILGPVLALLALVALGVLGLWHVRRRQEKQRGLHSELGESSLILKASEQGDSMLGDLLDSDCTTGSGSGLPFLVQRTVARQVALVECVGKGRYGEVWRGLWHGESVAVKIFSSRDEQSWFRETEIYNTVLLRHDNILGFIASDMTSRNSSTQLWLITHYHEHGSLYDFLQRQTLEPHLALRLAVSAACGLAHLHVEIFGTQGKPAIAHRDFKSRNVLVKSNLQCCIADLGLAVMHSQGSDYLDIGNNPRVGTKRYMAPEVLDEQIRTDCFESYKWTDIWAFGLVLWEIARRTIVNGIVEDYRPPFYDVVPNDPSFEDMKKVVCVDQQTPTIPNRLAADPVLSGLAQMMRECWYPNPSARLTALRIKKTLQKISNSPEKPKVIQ
Sequence of ALK3 (P36894 24-532): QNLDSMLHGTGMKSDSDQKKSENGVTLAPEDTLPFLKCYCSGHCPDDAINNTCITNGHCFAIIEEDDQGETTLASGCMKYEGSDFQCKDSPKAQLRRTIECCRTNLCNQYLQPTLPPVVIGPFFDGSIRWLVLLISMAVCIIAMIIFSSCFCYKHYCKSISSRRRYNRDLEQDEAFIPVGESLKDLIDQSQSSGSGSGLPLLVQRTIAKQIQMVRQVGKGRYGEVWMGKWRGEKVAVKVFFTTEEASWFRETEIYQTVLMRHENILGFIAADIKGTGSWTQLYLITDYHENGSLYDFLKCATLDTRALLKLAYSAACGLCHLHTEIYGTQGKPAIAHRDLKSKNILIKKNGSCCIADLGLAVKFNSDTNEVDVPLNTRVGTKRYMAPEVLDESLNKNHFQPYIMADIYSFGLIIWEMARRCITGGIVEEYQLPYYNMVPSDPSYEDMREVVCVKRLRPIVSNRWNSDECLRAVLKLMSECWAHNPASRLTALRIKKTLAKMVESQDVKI

Consider `CNS(=O)(=O)c1cccc2c(-c3cnn4cc(-c5ccc(N6[C@H](C)CNC[C@@H]6C)cc5)cnc34)cccc12` [Compound 41, 5-(6-(4-((2R,6S)-2,6-dimethylpiperazin-1-yl)phenyl)pyrazolo[1,5-a]pyrimidin-3-yl)-N-methylnaphthalene-1-sulfonamide], for which the concentration for half-maximal inhibition (IC50) on ALK2 [1] is 0.148 µM; in experiment [2], 2.94 µM; at ALK1, 0.54 µM; against ALK2 [3] it was 0.12 µM; on ALK3, 1.6 µM; against ALK4, greater than 10 µM. Moreover, the IC50 was greater than 10 µM against ALK5 and 6.5 µM against ALK6.

With `NC(=O)c1cccc2c(-c3cnn4cc(-c5ccc(N6CCNCC6)cc5)cnc34)cccc12` [Compound 6, 5-(6-(4-(piperazin-1-yl)phenyl)pyrazolo[1,5-a]pyrimidin-3-yl)-1-naphthamide], the IC50 is 0.021 µM at ALK2 [1]; 0.764 µM in experiment [2]; 0.031 µM against ALK1; 0.007 µM against ALK2 [3]; 0.03 µM against ALK3; 2.69 µM against ALK4. Also, the IC50 against ALK5 came out at 11.2 µM; against ALK6, 0.105 µM.

With `c1cc(-c2cc[nH]n2)cc(-c2cnn3cc(-c4ccc(CCN5CCCCC5)cc4)cnc23)c1` [Compound 90, 3-(3-(1H-pyrazol-3-yl)phenyl)-6-(4-(2-(piperidin-1-yl)ethyl)phenyl)pyrazolo[1,5-a]pyrimidine], the half-maximal inhibitory concentration (IC50) is 0.397 µM on ALK2 [1]; 15 µM in experiment [2]; 0.068 µM at ALK1; 0.014 µM on ALK2 [3]; greater than 10 µM against ALK3; 0.87 µM on ALK4. Besides, the half-maximal inhibitory concentration (IC50) at ALK5 and against ALK6 was greater than 10 µM each time.

With `CC(C)(CN1CCCCC1)Oc1ccc(-c2cnc3c(-c4ccc(C(N)=O)c5ccccc45)cnn3c2)cc1` [Compound 17, 4-(6-(4-((2-methyl-1-(piperidin-1-yl)propan-2-yl)oxy)phenyl)pyrazolo[1,5-a]pyrimidin-3-yl)-1-naphthamide], the IC50 at ALK2 [1] is 0.016 µM; in experiment [2] it was 0.434 µM; at ALK1 it was 0.011 µM; against ALK2 [3], 0.005 µM; on ALK3, 0.062 µM; against ALK4, 2.02 µM. Also, the IC50 against ALK5 is 8.58 µM; at ALK6, 1.24 µM.

In the case of `NS(=O)(=O)c1ccc(-c2cnn3cc(-c4ccc(OC5(CN6CCCCC6)COC5)cc4)cnc23)c2ccccc12` [Compound 87, 4-(6-(4-((3-(piperidin-1-ylmethyl)oxetan-3-yl)oxy)phenyl)pyrazolo[1,5-a]pyrimidin-3-yl)naphthalene-1-sulfonamide], the IC50 on ALK2 [1] is 0.479 µM; in experiment [2] it was 30 µM; at ALK1 it was 0.084 µM; against ALK2 [3], 0.023 µM; against ALK3 it was 1.8 µM; at ALK4 it was greater than 10 µM. The IC50 against ALK5 and at ALK6 was greater than 10 µM in each case.

For `CC(O)c1cccc(-c2cnn3cc(-c4ccc(CCN5CCCCC5)cc4)cnc23)c1` (stereo not drawn) [Compound 97, 1-(3-(6-(4-(2-(piperidin-1-yl)ethyl)phenyl)pyrazolo[1,5-a]pyrimidin-3-yl)phenyl)ethanol], the IC50 is 1.16 µM on ALK2 [1]; 0.0012 µM in experiment [2]; 0.51 µM at ALK1; 0.099 µM at ALK2 [3]; 3 µM against ALK3; greater than 10 µM against ALK4. The IC50 against ALK5 and against ALK6 was greater than 10 µM in each case.

Take `NC(=O)c1ccc(-c2cnn3cc(-c4ccc(N5CCNCC5)cc4)cnc23)c2ccccc12` [Compound 2, 4-(6-(4-(piperazin-1-yl)phenyl)pyrazolo[1,5-a]pyrimidin-3-yl)-1-naphthamide]: the half-maximal inhibitory concentration (IC50) came out at 0.028 µM at ALK2 [1]; 0.331 µM in experiment [2]; 0.018 µM against ALK1; 0.0045 µM on ALK2 [3]; 0.147 µM at ALK3; 11.2 µM against ALK4. The results for the IC50 at ALK5 and against ALK6 were 56.6 µM and 2.07 µM, respectively.

In the case of `CS(=O)(=O)c1cccc(-c2cnn3cc(-c4ccc(C5CCNCC5)cc4)cnc23)c1` [Compound 94, 3-(3-(methylsulfonyl)phenyl)-6-(4-(piperidin-4-yl)phenyl)pyrazolo[1,5-a]pyrimidine], the IC50 was 0.43 µM at ALK2 [1]; 4.4 µM in experiment [2]; 0.22 µM against ALK1; 0.053 µM at ALK2 [3]; 6.1 µM against ALK3; greater than 10 µM on ALK4. Also, the IC50 against ALK5 and on ALK6 was greater than 10 µM in each case.

Take `C[C@@H]1CNC[C@H](C)N1c1ccc(-c2cnc3c(-c4ccc(C(N)=O)c5ccccc45)cnn3c2)cc1` [Compound 9, 4-(6-(4-((2S,6R)-2,6-dimethylpiperazin-1-yl)phenyl)pyrazolo[1,5-a]pyrimidin-3-yl)-1-naphthamide]: the IC50 amounted to 0.011 µM at ALK2 [1]; 0.2 µM in experiment [2]; 0.004 µM against ALK1; 0.006 µM on ALK2 [3]; 0.042 µM against ALK3; 0.92 µM at ALK4. Further, the IC50 against ALK5 turned out to be 5.43 µM; on ALK6 it was 0.225 µM.
